Measurements published in patent US8647651B2, “Synergistic mixtures of C6- to C12-alkanediols and tropolone (derivatives)” (priority 2005, dated 2014).

Test system: Aspergillus niger ATCC 16404
Assay: Testing for adequate preservation (European Pharmacopoeia) of O/W emulsion, Example 1
Type: cell-based
Settings: for Aspergillus niger germ count: O/W emulsion pH 5.5, 0.5% product A, 0.01% product B, 0.31% product C
Procedure: Testing for adequate preservation was carried out in accordance with the European Pharmacopoeia. Testing thus comprises contamination of the formulation, if possible in its final condition, with a prescribed inoculum of suitable microorganisms, storage of the inoculated formulation at a certain temperature, removal of samples from the container at certain intervals of time and determination of the number of microorganisms in the samples removed in this way. The preserving properties are adequate if, under the conditions of the test, a clear reduction or, where appropriate, no increase in the germ count results in the inoculated formulations after the prescribed times at the prescribed temperatures. Experimental details of the test procedure are described in the European Pharmacopoeia (ISBN 3-7692-2768-9; Supplement 2001 to the 3rd Edition, page 421-422, chapter 5.1.3). The following microorganism strains were used for the tests for adequate preservation: • A: Escherichia coli ATCC 8739 • B: Pseudomonas aeruginosa ATCC 9027 • C: Staphylococcus aureus ATCC 6538 • D: Candida albicans ATCC 10231 • E: Aspergillus niger ATCC 16404 The initial germ count (CFU/g; “0 value”) was in the range of from 250,000 to 320,000 in the various test series. Formulation: For the tests for adequate preservation, a defined amount of the active compound combination according to the invention (product C) was incorporated into an O/W emulsion. For comparison purposes, the comparison products (product A and B) were incorporated into separate O/W emulsions. [table] The results of the preservative stress tests for Aspergillus niger for the active compound combinations investigated, comprising the mixture according to the invention (product C) or the comparison systems (products A and B) are compared in Table 2. The synergistic effect of the mixture according to the invention (product C) manifests itself here above all in the residual germ counts for Aspergillus niger which remain after 28 days.

O=c1cccccc1O [product B, 2,4,6-cycloheptatrien-1-one, 2-hydroxy]
reduction in the number of colony-forming units (CFU) of Aspergillus niger (28 days, product A 0.5 wt. %): no such significant reduction
Aspergillus niger germ count (day 0 (initial germ count)): 280,000 CFU/ml
Aspergillus niger germ count (day 2): 72,000 CFU/ml
Aspergillus niger germ count (day 7): 2,000 CFU/ml
Aspergillus niger germ count (day 14): 4,800 CFU/ml
Aspergillus niger germ count (day 28): 100 CFU/ml
